Measured values as given in ChEMBL document CHEMBL1155490, “Aaptamine, an alkaloid from the sponge Aaptos suberitoides, functions as a proteasome inhibitor” (Bioorg Med Chem Lett, 2010).
≈ marks a conversion by molar mass, not a printed value.

Tests used:
[1] = Inhibition of chymotrypsin like activity of partially purified rat liver proteasome by spectrofluorimetry; format: subcellular
HeLa = test: Cytotoxicity against human HeLa cells after 3 days by MTT assay; format: functional, cell-based; conditions: 72 h
[2] = Inhibition of caspase-like activity of 20S proteasome in human erythrocyte by spectrofluorimetry
[3] = Inhibition of chymotrypsin-like activity of purified 20S proteasome from human erythrocyte
[4] = Inhibition of caspase like activity of partially purified rat liver proteasome by spectrofluorimetry; format: subcellular
[5] = Inhibition of trypsin like activity of partially purified rat liver proteasome by spectrofluorimetry; format: subcellular

IC50 [1] [µg/mL] | IC50 [2] [µg/mL] | IC50 [3] [µg/mL] | IC50 [4] [µg/mL] | IC50 [5] [µg/mL] | Compound | IC50 (HeLa) [µg/mL]
2.1 (≈ 9.2 µM) | 1.7 (≈ 7.45 µM) | 1.7 (≈ 7.45 µM) | 2.4 (≈ 10.5 µM) | 10 (≈ 43.8 µM) | COc1cc2ccnc3c2c(c1O)N(C)C=C3 [ISOAAPTAMINE] | 3.1 (≈ 13.6 µM)
1.6 (≈ 7.01 µM) | 4.6 (≈ 20.2 µM) | 4.3 (≈ 18.8 µM) | 2.7 (≈ 11.8 µM) | 18 (≈ 78.9 µM) | COc1cc2ccnc3c2c(c1OC)NC=C3 [AAPTAMINE] | 15 (≈ 65.7 µM)
